Experimental data taken from US20260077009A1, “COMPOSITIONS AND METHODS FOR TREATING NEUROLOGICAL DISORDERS” (Neurotech International Ltd, priority 2021, published 2026).

Experiments:
[1] = Stability of NTI164 in oil at room temperature (UPLC, weekly assay, CBDA as marker)
[2] = system: neurons; assay: Cell death in an excitotoxic cell injury paradigm; format: cell-based; conditions: excitotoxic cell injury paradigm (glutamate 3 mM); 2 μg/ml
Method: Neuronal viability was quantified using MTT [3-(4,5-dimethylthiazol-2-yl-)-2,5-diphenyl-2H-tetrazolium bromide; Sigma]. […] Cellular excitotoxicity was achieved via glutamate activation (3 mM).

[3] = system: COX-2; assay: COX-2 immunohistochemistry (protein level) assay in microglial cells; format: cell-based, human; conditions: 2 μg/ml, N=9
Method: Immunohistochemistry (Protein Level) Assay: Cells were fixed for 10 min with 4% paraformaldehyde (PFA) in PBS. After 3×5 minutes washing with PBS, cells were incubated with primary antibodies (anti-COX2) 1:1000 overnight at 4° C., and after 3×5 minutes washing in PBS, cells were then incubated in appropriate fluorescent secondary antibody 1:250 (Invitrogen) for 2 hours at room temperature. After a final wash, as previous, cells nuclei were sained with DAPI in the mounting media. Photomicrographs were taken of the cells in three fields of view per well from duplicate wells and analysed using Fiji for area coverage of each marker.
(§1) The tubes are then placed in a sonication bath for 10 mins at 35-40 C. Upon completion of the sonication samples are then placed in a tray shaker (200 rpm) for 30 minutes at room temperature. Once completed the samples are then centrifuged at 4400 rpm for 5 minutes. The supernatant is collected for testing and development.
(§2) For the CBD sample, a pure standard (in powder form) was used. CBD 98% isolate was purchased as a reference standard from LGC Standards (London UK) (CAS No. 13956-29-1). The CBD standard reference was prepared at concentration of 1 mg/ml (in acetonitrile). CBD dilutions were made in acetonitrile as follows: 2 μg/ml; 6 μg/ml; and 0.1 μg/ml.

[4] = system: IL-12; assay: Multiplex cytokine/chemokine assay, IL-12; format: cell-based, human; conditions: 2 μg/ml; Interleukin and Interferon activation; control 99.91
Method: (§3) Multiplex Cytokine/Chemokine Assay: Microglia media harvested following treatment initiation was centrifuged briefly to remove particulates (300 g for 10 min). Cytokine and chemokine levels in the microglial media were measured using a Bio-Plex 200 with a 96-well magnetic plate assay according to the manufacturer's instructions (Bio-Rad). Cytokines and chemokines measured included IL-1α, IL-1β, IL-2, IL-6, IL-10, IL-12 (p70), IL-13, G-CSF, GM-CSF, IFNγ, TNFα, CXCL1 (KC), CCL2 (MCP-1), and CCL5 (RANTES). All samples were run in duplicate and data were analyzed with the Bio-Plex Manager software.
as §1, §2

[5] = system: TNF-alpha; assay: Multiplex cytokine/chemokine assay, TNF-alpha; format: cell-based, human; conditions: 2 μg/ml; Interleukin and Interferon activation
Method: as §3, §1, §2

| Compound | Cannabinoid concentration in NTI164 (sample 28206-7) ([1]; Day 0 (13 Jul. 2021)) | Cannabinoid concentration in NTI164 (sample 28206-7) ([1]; Day 2 (15 Jul. 2021)) | Cannabinoid concentration in NTI164 (sample 28206-7) ([1]; Day 7 (20 Jul. 2021)) | Cannabinoid concentration in NTI164 (sample 28206-7) ([1]; Day 14 (29 Jul. 2021)) | Cannabinoid concentration in NTI164 (sample 28206-7) ([1]; Day 28 (12 Aug. 2021)) | Cannabinoid concentration in NTI164 (sample 28206-7) ([1]; Week 5 (19 Aug. 2021)) | Cannabinoid concentration in NTI164 (sample 28206-7) ([1]; Week 6 (27 Aug. 2021)) | Cannabinoid concentration in NTI164 (sample 28206-7) ([1]; Week 32 (12 Sep. 2022)) | Cell death / toxicity [2] | COX-2 expression, Avg +/- SEM ([3]; exposure 1 hour after inflammatory insult (Interleukin and Interferon gamma), positive control 104.26) | COX-2 expression, Avg +/- SEM ([3]; exposure 1 hour prior to inflammatory insult (Interleukin and Interferon gamma), positive control 94.47) | IL-12, Average +/- Standard Deviation (SD) [4] | TNF-alpha, Average +/- Standard Deviation (SD) [5] |
| --- | --- | --- | --- | --- | --- | --- | --- | --- | --- | --- | --- | --- | --- |
| CCCCCc1cc2c(c(O)c1C(=O)O)[C@@H]1C=C(C)CC[C@H]1C(C)(C)O2 [(Tetrahydrocannabinolic acid) (D9-THCA), Tetrahydrocannabinolic acid] | 0.66 mg/mL | 0.72 mg/mL | 0.64 mg/mL | 0.69 mg/mL | 0.36 mg/mL | 0.79 mg/mL | 0.73 mg/mL | <0.1 mg/mL | – | – | – | – | – |
| C=C(C)[C@@H]1CCC(C)=C[C@H]1c1c(O)cc(CCCCC)cc1O [CBD, Cannabidiol, reference compound] | 0.46 mg/mL | 0.56 mg/mL | 0.53 mg/mL | 0.56 mg/mL | 0.54 mg/mL | 0.60 mg/mL | 0.51 mg/mL | 0.48 mg/mL | toxic | 76.32 +/− 7.95 (SEM) | 84.82 +/− 7.65 (SEM) | 84.40 +/− 6.54 | 71.13 +/− 12.81 |
| CCCCCc1cc(O)c2c(c1)OC(C)(CCC=C(C)C)C=C2 (stereo not drawn) [Cannabichrome (CBC), Cannabichrome] | 1.23 mg/mL | 1.19 mg/mL | 1.34 mg/mL | 1.22 mg/mL | 1.27 mg/mL | 1.20 mg/mL | 1.15 mg/mL | 1.22 mg/mL | – | – | – | – | – |
| C=C(C)[C@@H]1CCC(C)=C[C@H]1c1c(O)cc(CCCCC)c(C(=O)O)c1O [Cannabidiol acid (CBD-A), Cannabidiol acid] | 48.16 mg/mL | 48.19 mg/mL | 48.62 mg/mL | 48.09 mg/mL | 47.12 mg/mL | 48.35 mg/mL | 47.56 mg/mL | 47.01 mg/mL | – | – | – | – | – |
| C=C(C)[C@@H]1CCC(C)=C[C@H]1c1c(O)cc(CCC)cc1O [Cannabidivarin (CBDV), Cannabidivarin] | <0.1 mg/mL | <0.1 mg/mL | <0.1 mg/mL | <0.1 mg/mL | <0.1 mg/mL | 0.10 mg/mL | <0.1 mg/mL | 0.13 mg/mL | – | – | – | – | – |
| CCCCCc1cc(O)c(C/C=C(\C)CCC=C(C)C)c(O)c1 [Cannabigerol (CBG), Cannabigerol] | 5.21 mg/mL | 5.23 mg/mL | 5.14 mg/mL | 5.1 mg/mL | 5.1 mg/mL | 5.30 mg/mL | 5.28 mg/mL | 5.12 mg/mL | – | – | – | – | – |
| CCCCCc1cc(O)c(C/C=C(\C)CCC=C(C)C)c(O)c1C(=O)O [Cannabigerol Acid(CBG-A), Cannabigerol Acid] | 1.07 mg/mL | 1.18 mg/mL | 1.20 mg/mL | 1.19 mg/mL | 0.81 mg/mL | 1.08 mg/mL | 1.00 mg/mL | 1.05 mg/mL | – | – | – | – | – |
| CCCCCc1cc(O)c2c(c1)OC(C)(C)c1ccc(C)cc1-2 [Cannabinol (CBN), Cannabinol] | 2.32 mg/mL | 2.54 mg/mL | 2.48 mg/mL | 2.33 mg/mL | 2.56 mg/mL | 2.22 mg/mL | 2.27 mg/mL | 2.21 mg/mL | – | – | – | – | – |
| CCCCCc1cc(O)c2c(c1)OC(C)(C)[C@@H]1CC=C(C)C[C@@H]21 [DELTA-8-THC (D8-THC), DELTA-8-THC] | <0.1 mg/mL | <0.1 mg/mL | <0.1 mg/mL | <0.1 mg/mL | <0.1 mg/mL | <0.1 mg/mL | <0.1 mg/mL | <0.1 mg/mL | – | – | – | – | – |
| CCCCCc1cc(O)c2c(c1)OC(C)(C)[C@@H]1CCC(C)=C[C@@H]21 [Tetrahydrocannabinol (D9-THC), Tetrahydrocannabinol] | <0.1 mg/mL | <0.1 mg/mL | <0.1 mg/mL | <0.1 mg/mL | <0.1 mg/mL | 0.14 mg/mL | <0.1 mg/mL | 0.11 mg/mL | – | – | – | – | – |
| CCCc1cc(O)c2c(c1)OC(C)(C)[C@@H]1CCC(C)=C[C@@H]21 [Tetrahydrocannabivarin (THCV), Tetrahydrocannabivarin] | <0.1 mg/mL | <0.1 mg/mL | <0.1 mg/mL | <0.1 mg/mL | <0.1 mg/mL | <0.1 mg/mL | <0.1 mg/mL | <0.1 mg/mL | – | – | – | – | – |
